This is an account of results in patent publication US20060045953A1 (priority 2004, published 2006).

Where two headings read alike, the source gives them in different places.

The experiment has as its target T1, hT1R2/hT1R3 sweet receptor (Homo sapiens, UniProt Q7RTX0+Q8TE23).
T1 construct: expressed in transfected cells; host or cells: HEK293 derivative stably expressing Gα15, clone S-9
T1 sequence (Q8TE23 20-839): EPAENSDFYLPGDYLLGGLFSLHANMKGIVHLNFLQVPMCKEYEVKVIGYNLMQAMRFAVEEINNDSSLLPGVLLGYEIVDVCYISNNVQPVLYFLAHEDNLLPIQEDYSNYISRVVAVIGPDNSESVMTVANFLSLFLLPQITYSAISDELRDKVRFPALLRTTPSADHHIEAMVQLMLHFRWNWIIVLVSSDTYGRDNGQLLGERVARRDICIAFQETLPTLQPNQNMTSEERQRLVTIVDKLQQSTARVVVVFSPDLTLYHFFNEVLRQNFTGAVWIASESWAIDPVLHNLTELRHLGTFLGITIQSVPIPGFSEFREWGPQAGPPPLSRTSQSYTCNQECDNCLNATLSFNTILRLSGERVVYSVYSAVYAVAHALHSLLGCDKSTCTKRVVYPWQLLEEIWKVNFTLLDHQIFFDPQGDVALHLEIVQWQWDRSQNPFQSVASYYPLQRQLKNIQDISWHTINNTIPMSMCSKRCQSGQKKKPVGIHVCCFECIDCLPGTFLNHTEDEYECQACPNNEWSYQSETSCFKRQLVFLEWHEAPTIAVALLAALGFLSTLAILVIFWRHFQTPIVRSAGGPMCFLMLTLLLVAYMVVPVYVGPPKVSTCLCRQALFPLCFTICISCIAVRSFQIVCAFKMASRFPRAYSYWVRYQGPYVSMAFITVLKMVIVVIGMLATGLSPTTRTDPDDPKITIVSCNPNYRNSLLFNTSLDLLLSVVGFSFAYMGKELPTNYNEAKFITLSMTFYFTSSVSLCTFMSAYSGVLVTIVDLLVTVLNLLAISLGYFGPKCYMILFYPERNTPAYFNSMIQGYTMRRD
T1 sequence (Q7RTX0 21-852): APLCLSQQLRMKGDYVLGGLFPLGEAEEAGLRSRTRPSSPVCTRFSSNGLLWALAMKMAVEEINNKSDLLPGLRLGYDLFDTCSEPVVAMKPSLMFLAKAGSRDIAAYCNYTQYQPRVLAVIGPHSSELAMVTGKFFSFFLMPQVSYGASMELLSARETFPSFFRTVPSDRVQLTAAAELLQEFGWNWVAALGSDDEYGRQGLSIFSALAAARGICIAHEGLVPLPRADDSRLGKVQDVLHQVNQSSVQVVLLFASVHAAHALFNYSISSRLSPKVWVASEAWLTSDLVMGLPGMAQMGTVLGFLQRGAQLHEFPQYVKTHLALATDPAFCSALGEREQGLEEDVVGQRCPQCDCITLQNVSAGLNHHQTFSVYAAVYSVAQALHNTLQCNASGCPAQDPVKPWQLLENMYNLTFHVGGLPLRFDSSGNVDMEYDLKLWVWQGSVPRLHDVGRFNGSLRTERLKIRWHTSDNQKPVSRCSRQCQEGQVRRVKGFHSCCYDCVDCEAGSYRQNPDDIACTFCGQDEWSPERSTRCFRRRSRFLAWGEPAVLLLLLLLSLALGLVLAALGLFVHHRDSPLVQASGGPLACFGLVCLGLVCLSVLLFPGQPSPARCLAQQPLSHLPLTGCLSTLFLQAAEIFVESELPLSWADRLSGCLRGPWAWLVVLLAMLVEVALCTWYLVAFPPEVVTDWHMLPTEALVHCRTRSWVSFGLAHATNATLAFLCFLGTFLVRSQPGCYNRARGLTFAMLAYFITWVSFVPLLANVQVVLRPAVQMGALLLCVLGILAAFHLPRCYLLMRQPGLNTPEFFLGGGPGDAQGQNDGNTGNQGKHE
The experiment is described as follows: In vitro hT1R2/hT1R3 sweet taste receptor activation assay (FLIPR, dose response). Type of experiment: cell-based. Here is the method: Activity was determined using an automated fluorometric imaging assay on a FLIPR instrument (Fluorometric Intensity Plate Reader, Molecular Devices, Sunnyvale, Calif.) (designated FLIPR assay). […] S-9 cells were grown for 24 hours at 37° C. S-9 cells were then loaded with the calcium dye Fluo-3AM (Molecular Probes, Eugene, Oreg.), 4 µM in a phosphate buffered saline (D-PBS) (Invitrogen, Carlsbad, Calif.), for 1 hour at room temperature. After replacement with 25 µl D-PBS, stimulation was performed in the FLIPR instrument and at room temperature by the addition of 25 µl D-PBS supplemented with different stimuli at concentrations corresponding to twice the desired final level.
For dose-responses analysis, stimuli were presented in duplicates at 10 different concentrations ranging from 60 nM to 30 µM. Activities were normalized to the response obtained with 400 mM D-fructose, a concentration that elicits maximum receptor response. EC50s were determined using a non-linear regression algorithm (using a Senomyx, Inc. software), where the Hill slope, bottom asymptotes and top asymptotes were allow to vary.

[1] abbreviates: Table E, Sweet Enhancer Amides, read-out: Sweet EC50.
Where [2] appears, read: read-out: EC50 for activation of a hT1R2/hT1R3 sweet receptor expressed in an HEK293 cell line.

For `Cc1cccc2c1CCC[C@H]2NC(=O)c1cccc(Cl)c1O` [Example E126, (R)-3-chloro-2-hydroxy-N-(5-methyl-1,2,3,4-tetrahydronaphthalen-1-yl)benzamide], under setting [1], the EC50 stood at 0.89 µM. Regarding `O=C(Nc1ccccc1Cl)N1Cc2ccccc2C1` [Example E106, N-(2-chlorophenyl)isoindoline-2-carboxamide], the EC50 under setting [1] was 3.85 µM. `Cc1cc(C)c(C(=O)NC2CCCC(C)C2C)c(C)c1` (stereo not shown) [Example E50, N-(2,3-dimethylcyclohexyl)-2,4,6-trimethylbenzamide]: the EC50 under setting [1] was found to be 1.41 µM.

Take `Cc1c(Cl)cccc1NC(=O)N1CCc2ccccc2C1` [Example E112, N-(3-chloro-2-methylphenyl)-3,4-dihydroisoguinoline-2(1H)-carboxamide]: the EC50 under setting [1] was determined as 4.33 µM. Turning to `CC1CCCCC1NC(=O)c1ccc(Cl)c(Cl)c1` (stereo not shown) [Example E54, 3,4-dichloro-N-(2-methylcyclohexyl)benzamide], the EC50 under setting [1] worked out at 1.83 µM. As for `COc1ccc(NC(=O)N2CCc3ccccc3C2)c(OC)c1` [Example E113, N-(2,4-dimethoxyphenyl)-3,4-dihydroisoquinoline-2(1H)-carboxamide], the EC50 under setting [1] is 4.44 µM. For the compound `COc1ccc2c(c1)CCCC2NC(=O)c1cccc(Cl)c1O` (stereo not shown) [Example E5, 3-chloro-2-hydroxy-N-(6-methoxy-1,2,3,4-tetrahydronaphthalen-1-yl)benzamide], the EC50 under setting [1] amounted to 1.61 µM.

Take `Cc1ccc(NC(=O)N2CCc3ccccc3C2)cc1` [Example E111, N-p-tolyl-3,4-dihydroisoquinoline-2(1H)-carboxamide]: the EC50 under setting [1] turned out to be 4.27 µM. Consider `COc1ccc(NC(=O)N2Cc3cccc(C)c3C2)c(F)c1` [Example E118, N-(2-fluoro-4-methoxyphenyl)-4-methylisoindoline-2-carboxamide], for which the EC50 under setting [1] is 0.1 µM. On the same count and under the same terms, the value for `CC1CCCC(NC(=O)c2cccc(Cl)c2Cl)C1C` (stereo not shown) [Example E76, 2,3-dichloro-N-(2,3-dimethylcyclohexyl)benzamide] was 3.99 µM; that for `CC1CCCCC1NC(=O)c1cc(F)cc(Cl)c1` (stereo not shown) [Example E30, 3-chloro-5-fluoro-N-(2-methylcyclohexyl)benzamide] was 0.45 µM.

Take `COc1ccc(NC(=O)N2Cc3ccccc3C2)c(C)c1` [Example 173, N-(4-methoxy-2-methylphenyl)isoindoline-2-carboxamide]: the EC50 under setting [2] was 4.5 µM. Consider `O=C(NC1CCc2ccccc21)c1cccc(Cl)c1O` (stereo not shown) [Example E51, 3-chloro-N-(2,3-dihydro-1H-inden-1-yl)-2-hydroxybenzamide], for which the EC50 under setting [1] is 1.49 µM. On the same count and under the same terms, the same measure for `Cc1ccc(C(=O)NC2CCC(C)CC2)c(O)c1` (stereo not shown) [Example E67, 2-hydroxy-4-methyl-N-(4-methylcyclohexyl)benzamide]: 2.98 µM. Consider `CCc1nocc1C(=O)N[C@@H]1CCCc2c(OC)cccc21` [Example 187, (R)-3-Ethyl-N-(5-methoxy-1,2,3,4-tetrahydronaphthalen-1-yl)isoxazole-4-carboxamide], for which the EC50 under setting [2] is 0.4 µM. With `CCC(COC)NC(=O)c1ccc(C)cc1C` (stereo not shown) [Example E42, N-(1-methoxybutan-2-yl)-2,4-dimethylbenzamide], the EC50 under setting [1] is 1.06 µM. With `Cc1ccc(NC(=O)N2Cc3ccccc3C2)cc1` [Example E104, N-p-tolylisoindoline-2-carboxamide], under setting [1], the EC50 was determined as 3.05 µM. `C=CCc1c(F)c(F)c(C(=O)NC2CCCCC2)c(F)c1F` [Example E132, 4-allyl-N-cyclohexyl-2,3,5,6-tetrafluorobenzamide]: the EC50 under setting [1] is 0.55 µM. Consider `COc1ccc(NC(=O)N2Cc3ccccc3C2)cc1` [Example E108, N-(4-methoxyphenyl)isomdoline-2-carboxamide], for which the EC50 under setting [1] turned out to be 4.99 µM. Same read-out and setting: the same measure for `COc1c(Cl)ccc(Cl)c1C(=O)NC1CCCC(C)C1C` (stereo not shown) [Example E48, 3,6-dichloro-N-(2,3-dimethylcyclohexyl)-2-methoxybenzamide]: 1.29 µM. In the case of `CC1CCc2ccccc2C1NC(=O)c1cccc(Cl)c1O` (stereo not shown) [Example E1, 3-chloro-2-hydroxy-N-(2-methyl-1,2,3,4-tetrahydronaphthalen-1-yl)benzamide], the EC50 under setting [1] turned out to be 0.19 µM. As to `CCCCc1nocc1C(=O)N[C@@H]1CCCc2c(OC)cccc21` [Example 189, (R)-3-Butyl-N-(5-methoxy-1,2,3,4-tetrahydronaphthalen-1-yl)isoxazole-4-carboxamide], the EC50 under setting [2] came to 0.36 µM. For `O=C(NC1CCCc2ccccc21)c1c(Cl)cccc1Cl` (stereo not shown) [Example E15, 2,6-dichloro-N-(1,2,3,4-tetrahydronaphthalen-1-yl)benzamide], the EC50 under setting [1] stood at 3.02 µM. For the compound `COc1c(Cl)cc(C(=O)Nc2ccccc2C)cc1Cl` [Example E88, 3,5-dichloro-4-methoxy-N-o-tolylbenzamide], under setting [1], the EC50 came out at 1.84 µM. With `Cc1c(Cl)cccc1C(=O)N[C@H]1CCCc2ccccc21` [Example E13, (S)-3-chloro-2-methyl-N-(1,2,3,4-tetrahydronaphthalen-1-yl)benzamide], the EC50 under setting [1] amounted to 2.91 µM. For `Cc1cc(C)cc(C(=O)NC2CCCCC2C)c1` (stereo not shown) [Example E82, 3,5-dimethyl-N-(2-methylcyclohexyl)benzamide], under setting [1], the EC50 stood at 4.48 µM. The same measure, in the same setting: the same measure for `COc1cc(C(=O)NC2CCCCC2C)cc(Cl)n1` (stereo not shown) [Example E40, 2-chloro-6-methoxy-N-(2-methylcyclohexyl)isonicotinamide]: 0.95 µM; for `CC1CCCCC1NC(=O)c1ccnc(F)c1` (stereo not shown) [Example E65, 2-fluoro-N-(2-methylcyclohexyl)isonicotinamide]: 2.83 µM; for `C/C=C/c1c(F)c(F)c(C(=O)N[C@@H](C)C(C)C)c(F)c1F` [Example E129, (S,E)-2,3,5,6-tetrafluoro-N-(3-methylbutan-2-yl)-4-(prop-1-enyl)benzamide]: 0.41 µM. Turning to `Cc1cc(-c2ccco2)cc(C)c1C(=O)NC1CCCCC1C` (stereo not shown) [Example 202, 4-(furan-2-yl)-2,6-dimethyl-N-(2-methylcyclohexyl)benzamide], the EC50 under setting [2] was 1.02 µM. For `CC1CCCCC1NC(=O)c1cccc(OC(F)(F)F)c1` (stereo not shown) [Example E29, N-(2-methylcyclohexyl)-3-(trifluoromethoxy)benzamide], the EC50 under setting [1] was 0.42 µM. In the case of `COc1c(Cl)ccc(Cl)c1C(=O)NC1CCCCC1C` (stereo not shown) [Example E37, 3,6-dichloro-2-methoxy-N-(2-methylcyclohexyl)benzamide], the EC50 under setting [1] amounted to 0.77 µM. Regarding `CCCOc1cc(C)c(C(=O)NC2CCCCC2C)c(C)c1` (stereo not shown) [Example 201, 2,6-dimethyl-N-(2-methylcyclohexyl)-4-propoxybenzamide], the EC50 under setting [2] was found to be 0.69 µM.

For the compound `Cc1c(F)c(F)c(C(=O)NC(C)C(C)C)c(F)c1F` (stereo not shown) [Example E27, 2,3,5,6-tetrafluoro-4-methyl-N-(3-methylbutan-2-yl)benzamide], the EC50 under setting [1] stood at 0.14 µM.
